“Also recorded” adds a separate entry of the source.
Legend:
[1] = cited from earlier work
[2] = test system: neocortical ischemic neuronal damage and edema; settings: cited from earlier work
[3] = single oral dose 30 mg, extensive metabolizers (N=5); cited from earlier work
[4] = Dextromethorphan with quinidine in healthy subjects (Pope et al.); type: in vivo, human; settings: from 68-fold concentration in brain and plasma levels with quinidine
Description: The use of quinidine to inhibit the rapid first-pass metabolism of dextromethorphan allows the attainment of potential neuroprotective drug levels in the brain. […] This dose, 30 mg twice daily (BID) given with 60 mg BID dextromethorphan, increased plasma levels of dextromethorphan 25-fold. In this manner, coadministration of 30 mg of quinidine BID with dextromethorphan in the three unsuccessful amyotrophic lateral sclerosis neuroprotection trials could have readily transformed the inadequate dextromethorphan doses into standard neuroprotective plasma concentrations.
Given the 68-fold concentration of dextromethorphan in brain found in neurosurgery patients (Steinberg et al. J Neurosurg. 1996; 84:860-6), an estimated brain concentration of 13,100 ng/g (about 48 microM) is achievable. This corresponds to neuroprotective levels established in preclinical in vitro (Choi et al. J Pharmacol Exp Ther. 1987; 242:713-20) and in vivo (Steinberg et al. Neurol Res. 1993; 15:174-80) studies.
A reasonable concern is that the achievement of higher dextromethorphan plasma concentrations, as well as the use of quinidine, may be associated with an increased occurrence of adverse events, particularly in patients with neurological disorders. […] No difference was found between the extensive and poor metabolizer phenotypes. […]

[5] = test system: methotrexate (MTX) neurotoxicity; settings: oral 1-2 mg/kg, N=5, all patients; cited from earlier work
[6] = Huntington's disease, N=11; cited from earlier work
[7] = ALS, detectable in only 1 of 7 patients, 4.8 to 10 mg/kg/day, at 3 months; cited from earlier work
[8] = cited from earlier work; remark: listed apart in the source
[9] = test system: glutamate-induced neurotoxicity in neocortical cell cultures, in vitro hypoxia and glucose deprivation models; settings: cited from earlier work
[10] = test system: perioperative brain injury; settings: cited from earlier work
[11] = test system: amyotrophic lateral sclerosis; settings: cited from earlier work
[12] = in vivo
Description: Dosages of other antioxidants will vary with the antioxidant, and are determined on an individual basis.

COc1ccc2c(c1)[C@]13CCCCC1[C@H](C2)N(C)CC3 (single isomer, unassigned; (+)) [dextromethorphan, (+)-3-methoxy-N-methylmorphinan]
adverse reactions ([1]; even at the highest levels, symptoms tolerable and reversible): no patient suffered severe adverse reactions | maximum level in serum ([1]; neurosurgery patients, maximum 9.64 mg/kg oral dose): 1514 ng/mL | maximum level in brain ([1]; neurosurgery patients): 92,700 ng/g | neuroprotective plasma (serum) levels ([2]; animal models of cerebral ischemia): ≥ 500 ng/mL | neuroprotective brain levels ([2]; conversion of 10,000 ng/g): about 37 microM | dextromethorphan in plasma [3]: not detectable or at the limits of detection | estimated brain concentration achievable [4]: 13,100 ng/g and about 48 microM | neurological symptoms of MTX neurotoxicity [5]: completely resolved neurological symptoms; also recorded: completely resolved neurological deficits | median peak tolerated dose [6]: 410 mg/day | steady-state plasma level (Cmax) [7]: 190 ng/mL | AUC0-12 ([8]; 120 mg daily dextromethorphan (60 mg BID) with quinidine (30 mg BID), steady state): 1963 ± 609 ng·h/mL | steady state peak plasma levels ([8]; 120 mg daily dextromethorphan (60 mg BID) with quinidine (30 mg BID)): 192 ± 45 ng/mL | concentration giving almost complete protection [9]: 100 µM | levels in CSF ([10]; oral 36-38 mg/kg/day, children, cardiac surgery): 285 to 939 ng/mL | adverse events ([10]; oral 36-38 mg/kg/day): not observed | postoperative EEG sharp waves ([10]; p=0.02, N=13): significantly decreased postoperative EEG sharp waves | third ventricle postoperative enlargement, diameter ([10]; vs. 0.256 cm placebo, p=0.06): 0.112 cm | rate of postoperative periventricular white matter lesions ([10]; vs. 2/7 placebo): 0/6 | clinical or neurophysiological parameter improvements ([11]; Askmark et al., N=14, 150 mg/day 12-week crossover, then 300 mg/day open): no clinical or neurophysiological parameter | rate of disease progression vs placebo ([11]; Blin et al., N=49, 1.5 mg/kg/day, 1-year): no significant differences in rate of disease progression | 12-month survival ([11]; Gredal et al., N=45, 150 mg/day): did not demonstrate an improvement in 12-month survival

C=C[C@H]1C[N@]2CC[C@@H]1C[C@@H]2[C@@H](O)c1ccnc2ccc(OC)cc12 [quinidine]
lowest dose needed to maximally suppress O-demethylation of dextromethorphan ([8]; human, in vivo): about 30 mg | increase of plasma levels of dextromethorphan ([8]; quinidine 30 mg BID given with 60 mg BID dextromethorphan): 25 fold

CNCCC(Oc1ccc(C(F)(F)F)cc1)c1ccccc1 (stereo not drawn) [fluoxetine]
increase of dextromethorphan concentrations in the blood [12]: effective in increasing dextromethorphan concentrations in the blood of some people

— patent US20090111846A1, “PHARMACEUTICAL COMPOSITIONS COMPRISING DEXTROMETHORPHAN AND QUINIDINE FOR THE TREATMENT OF DEPRESSION, ANXIETY, AND NEURODEGENERATIVE DISORDERS” (Avanir Pharmaceuticals, priority 2006, published 2009)
